From patent US8012945B2, “Phage antibodies to radiation-inducible neoantigens” (Vanderbilt University, priority 2001, dated 2011)

Key:
[1] = system: irradiated tumors (LLC and GL261); experiment: In vivo screening of T7 phage peptide library, LLC and GL261 tumors pooled; design: species or system mice; settings: for Frequency of Recovery: conserved motifs within peptides identified by in vivo screening
Method: GL261 murine glioma cells and Lewis lung carcinoma cells were implanted into the hind limb of C57BL6 mice (Hallahan et al., 1995b; Hallahan et al., 1998; Hallahan & Virudachalam, 1999).
For in vivo screening, tumors were irradiated with 3 Gy and approximately 10^10 phage (prepared as described in Example 4) were administered by tail vein injection into each of the tumor bearing mice at 4 hours following irradiation. Tumors were recovered at one hour following injection and amplified in BL21 bacteria. Amplified phage were pooled and re-administered to a tumor-bearing mouse following tumor irradiation. The phage pool was sequentially administered to a total of 6 animals. As a control, wild type phage lacking synthetic peptide inserts were identically administered to a second experimental group of animals.
To determine the titer of phage binding in a tumor or in normal tissue, recovered phage were amplified in BL21 bacteria. Bacteria were plated and the number of plaques present were counted. To determine the total phage output per organ, the number of plaque forming units (PFU) on each plate was divided by the volume of phage plated and the weight of each organ.
An individual phage suspension was used as template. Amplified peptides were sequenced using an ABI PRISM 377 sequencer (PE Biosystems, Foster City, Calif., United States of America).

GL261 tumors = experiment: In vivo screening of T7 phage peptide library, irradiated GL261 tumors; design: species or system mice; settings: 3 Gy, 6 rounds of in vivo screening; for Number of Phage Recovered from GL261 tumors: randomly selected phage
Method: (§1) A population of DNA fragments encoding recombinant peptide sequences was cloned into the T7 […] vector (Novagen, Madison, Wis., United States of America). […] The resulting reading frame requires an AAT initial codon followed by a TCX codon. The molar ratio between insert and vector was 1:1. Size-fractionated cDNA inserts were prepared by gel filtration on sepharose 4B and ranged from 27 base pairs to 33 base pairs. cDNAs were ligated by use of the DNA ligation kit (Novagen, Madison, Wis., United States of America). Recombinant T7 DNA was packaged according to the manufacturer's instructions and amplified prior to bioscreening in animal tumor models. […] GL261 murine glioma cells and Lewis lung carcinoma cells were implanted into the hind limb of C57BL6 mice ([…] et al., 1995[…] et al., 1998; […], 1999). […] Tumors were recovered at one hour following injection and amplified in BL21 bacteria. Amplified phage were pooled and re-administered to a tumor-bearing mouse following tumor irradiation. The phage pool was sequentially administered to a total of 6 animals. […] To determine the titer of phage binding in a tumor or in normal tissue, recovered phage were amplified in BL21 bacteria. Bacteria were plated and the number of plaques present were counted. To determine the total phage output per organ, the number of plaque forming units (PFU) on each plate was divided by the volume of phage plated and the weight of each organ. […] Following 6 rounds of in vivo screening, fifty recombinant phage peptides that bound within irradiated tumors were randomly selected for further analysis. The nucleic acid sequence encoding recombinant phage was amplified by PCR using primers set forth as SEQ ID NOs: 14-15 (available from Novagen, Madison, Wis., United States of America). An individual phage suspension was used as template. Amplified peptides were sequenced using an ABI PRISM 377 sequencer (PE Biosystems, Foster City, Calif., United States of America).

LLC tumors = experiment: In vivo screening of T7 phage peptide library, irradiated LLC tumors; design: species or system mice; settings: 3 Gy, 6 rounds of in vivo screening; for Number of Phage Recovered from LLC tumors: randomly selected phage
Method: as §1

[2] = system: melanoma, lung carcinoma, and glioma tumor models; experiment: Binding of peptide-encoding phage in additional tumor models; type: in vivo, mice; settings: B16F0 melanoma, Lewis lung carcinoma, GL261 glioma
From the text: The binding properties of phage encoding […] (SEQ ID NO: 1), […] (SEQ ID NO: 2), […] (SEQ ID NO: 3), and NSVGSRV (SEQ ID NO: 4) were additionally characterized in a B16F0 melanoma model.

[3] = system: P-selectin and platelet membrane glycoprotein IIB; experiment: Screening of phage-displayed scFv library on immobilized neoantigens, Western immunoblot, then in vivo screening of irradiated tumors; type: binding; settings: recovered following in vivo screening to irradiated tumors
Method: A phage library comprising diverse single chain antibodies was prepared in M13 phage. Briefly, nucleotide sequences encoding antibody VL and VH regions separated by a (Gly4Ser)3 linker were fused to M13 gene III nucleotide sequences. When a recombinant M13 carrying these antibody-gene III fusions infects an appropriate host bacterium, the host produces recombinant M13 phage that display scFv antibody polypeptides (VL-linker-VH) fused to gene III protein.
The phage library was exposed to the radiation-inducible neoantigens P-selectin (also called CD62P; GENBANK™ Accession No. P98109) and/or platelet membrane glycoprotein IIB (also called CD41; GENBANK™ Accession No. P08514) immobilized on glass slides. Phage were selected based on antigen binding, and selected phage were pooled as a biased library. For representative in vitro screening methods, see Fowlkes et al., 1992; Haaparanta & Huse, 1995; Jung & Pluckthun, 1997; Peter et al., 2000; Holzem et al., 2001; Chiu et al., 2000.
Phage identified by in vitro screening were tested on Western immunoblots to confirm binding to the P-selection and platelet membrane glycoprotein IIB neoantigens. Phage that specifically bound P-selectin and platelet membrane glycoprotein IIB were subsequently used for in vivo screening of irradiated tumors as described in Example 5. Wild type phage were used as internal controls. Antibodies having substantial affinity for irradiated tumors were identified by observing an increased number of phage in the irradiated tumor when compared to a number of phage in a control organ (e.g., liver and lung). Phage antibodies with the greatest affinity for tumors were identified using the formula: number of phage in irradiated tumor/number of phage in each organ.

## GSRV (Artificial peptide ligand number 7)
[1]; mouse, in vivo
  share of peptide sequences recovered from 6 irradiated tumors having the subsequence: 4%

## GSSV (Artificial peptide ligand number 13)
[1]
  Frequency of Recovery: 56%
[1]; mouse, in vivo
  phage recovered from irradiated tumors: 22-40 of 10^6 injected phage
  share of peptide sequences recovered from 6 irradiated tumors having the subsequence: 56%

## GSXV [conserved motif within recovered peptides]
[1]
  Frequency of Recovery: 78%

## NHVGGSSV (Artifical peptide ligand number 1)
GL261 tumors
  Phage Recovered from GL261 tumors (Frequency): 48%
  Number of Phage Recovered from GL261 tumors: 12
LLC tumors
  Phage Recovered from LLC tumors (Frequency): 28%
  Number of Phage Recovered from LLC tumors: 7
[2]
  binding of phage encoding the peptide within tumor models: bound within the melanoma, lung carcinoma, and glioma tumor models

## NSLRGDGSSV (phage-displayed; Artificial peptide ligand number 2)
GL261 tumors
  Phage Recovered from GL261 tumors (Frequency): 8%
  Number of Phage Recovered from GL261 tumors: 2
LLC tumors
  Phage Recovered from LLC tumors (Frequency): 28%
  Number of Phage Recovered from LLC tumors: 7
[2]
  binding of phage encoding the peptide within tumor models: bound within the melanoma, lung carcinoma, and glioma tumor models

## NSV (Artificial peptide ligand number 10) [conserved motif within recovered peptides]
[1]
  Frequency of Recovery: 22%

## NSVGSRV (Artificial peptide ligand number 4)
GL261 tumors
  Phage Recovered from GL261 tumors (Frequency): 12%
  Number of Phage Recovered from GL261 tumors: 3
LLC tumors
  Phage Recovered from LLC tumors (Frequency): 4%
  Number of Phage Recovered from LLC tumors: 1
[2]
  binding of phage encoding the peptide within tumor models: bound within lung carcinoma and glioma

## NSVRGSGSGV (Artificial peptide ligand number 3)
GL261 tumors
  Number of Phage Recovered from GL261 tumors: 0
LLC tumors
  Phage Recovered from LLC tumors (Frequency): 28%
  Number of Phage Recovered from LLC tumors: 7
[2]
  binding of phage encoding the peptide within tumor models: bound within glioma and melanoma

## NSXR [conserved motif within recovered peptides]
[1]
  Frequency of Recovery: 32%

## NSXRGXGS [conserved motif within recovered peptides]
[1]
  Frequency of Recovery: 32%

## NXVG [conserved motif within recovered peptides]
[1]
  Frequency of Recovery: 46%

## RGDGSSV (Artificial peptide ligand number 6)
[1]; mouse, in vivo
  share of peptide sequences recovered from 6 irradiated tumors having the subsequence: 18%

B1: SEQ ID NO: 18: scFv antibody encoded by SEQ ID NO: 17 (protein)
scFv: MAQVKLQQSGAELVMPGASVKMSCKASGYTFTDYWMHWVKQRPGQGLEWIGAIDTSDSYTSYNQKFKGKATLTVDESSSTAYMQLSSLTSEDSAVYYCARRGYYSAFDYWGQGTTVTVSSGGGGSGGGGSGGGGSDIELTQSPTTMAASPGEKVTITCRASSSVSYMHWFQQKSGTSPKPWIYDTSKLASGVPDRFSGSGSGTSYSLTISSMEAEDAATYYCLQRSSYPYTFGAGTKLEIKR
modifications: Artificial antibody ligand number 1
[3]
  neoantigen recognition: recognize the radiation-inducible neoantigens P-selectin and platelet membrane glycoprotein IIB

B2: SEQ ID NO: 20: scFv antibody encoded by SEQ ID NO: 19 (protein)
scFv: MAQVKLQQSGPELVKPGASVKMSCKASGYTFTSYVMHWVKQKPGQGLEWIGYINPYNDGTKYNEKFKGKAALTSDKSSSTAYMELSSLTSEDSAVYYCARFGNYGALDYWGQGTTVTVSSGGGGSGGGGSGGGGSDIELTQSPTIMSASPGEKVTITCSASSSVSYMHWFQQKPGTSPKPWIYGTSNLASGVPVRFSGSGSGTSYSLTISSMEAEDAATYYCQQWSSYPLTFGGGTKLEIKR
modifications: Artificial antibody ligand number 2
[3]
  neoantigen recognition: recognize the radiation-inducible neoantigens P-selectin and platelet membrane glycoprotein IIB

B3: SEQ ID NO: 22: scFv antibody encoded by SEQ ID NO: 21 (protein)
scFv: MAQVQLQESGPGLVKPSQSLSLTCSVTGYSITSNYWGWIRKFPGNKMEWMGYISYSGSTSYNPSLKSRISITRDTSKNQLFLQLNSVTTEDTATYYCARYSLFNYGRRDYVMDAWGQGTTVTVSSGGGGSGGGGSGGGGSDIELTQSPATMAASPGEKVTITCRASSTVSYMHWFQQKPGASPKPWIYDTSKLASGVPDRFSGSGSGTDFTLTIDPVQADDIATYYCQQSKDDPRTFGGGTKLELKRRPQVRRCRIRIRWNRVPH
modifications: Nucleic acid encoding scFv antibody 4A
[3]
  neoantigen recognition: recognize the radiation-inducible neoantigens P-selectin and platelet membrane glycoprotein IIB

B4: SEQ ID NO: 24: scFv antibody encoded by SEQ ID NO: 23 (protein)
scFv: MAQVKLQQSGPELVKPGASVKMSCKASGYTFTSYVMHWVKQSNGKSLEWIGTIDPYYGGTSYNQKFKGKATLTVDKSSTTAYIQLKSLTSEDSAVYYCARWDGYYGGFSYWGQGTMVTVSSGGGGSGGGGSGGGGSDIELTQSPAIMSATLGEKVTMSCRASSNVKYMYWYQQKSGASPKLWIYYTSNLASGVPARFSGSGSGTSYSLTISSVEAEDAATYYCQQFTSSPYTFGSGTKLEIKRAAAGAPVPYPDPLEPRAA
modifications: nucleic acid encoding scFv antibody 10A
[3]
  neoantigen recognition: recognize the radiation-inducible neoantigens P-selectin and platelet membrane glycoprotein IIB
